Assays:
[1] = Antiproliferative activity against mouse BaF3 cells assessed as cell growth inhibition by CellTiter-Glo assay; conditions: BaF3 cells
KMS-11 = assay: Antiproliferative activity against human KMS-11 cells harboring FGFR3 Y373C mutant assessed as cell growth inhibition by CellTiter-Glo assay; format: functional
CYP2C9 = CYP2C9 (Homo sapiens, UniProt P11712); assay: Inhibition of CYP2C9 (unknown origin) assessed as remaining activity at 10 uM relative to control; format: ADME; conditions: read-out: Activity
[2] = target: Fibroblast growth factor receptor 3 (Homo sapiens, UniProt P22607); assay: Inhibition of wild-type FGFR3 (unknown origin) by radiometric kinase activity assay
[3] = target: Fibroblast growth factor receptor 4 (Homo sapiens, UniProt P22455); assay: Inhibition of wild-type FGFR4 (unknown origin) by radiometric kinase activity assay
BaF3 [4] = assay: cells; format: functional; conditions: Mus musculus
CYP2D6 = CYP2D6 (Homo sapiens, UniProt P10635); assay: Inhibition of CYP2D6 (unknown origin) assessed as remaining activity at 10 uM relative to control; format: ADME; conditions: read-out: Activity
[5] = target: Fibroblast growth factor receptor 2 (Homo sapiens, UniProt P21802, N549H)
[6] = Stability in mouse liver microsomes assessed as parent compound remaining at 1 uM incubated for 30 mins; format: ADME, Microsome; conditions: read-out: Stability
[7] = target: Fibroblast growth factor receptor 3 (Homo sapiens, UniProt P22607, K650E)
CYP2C19 = CYP2C19 (Homo sapiens, UniProt P33261); assay: Inhibition of CYP2C19 (unknown origin) assessed as remaining activity at 10 uM relative to control; format: ADME; conditions: read-out: Activity
CYP3A4 = CYP3A4 (Homo sapiens, UniProt P08684); assay: Inhibition of CYP3A4 (unknown origin) assessed as remaining activity at 10 uM relative to control; format: ADME; conditions: read-out: Activity
J82 = assay: Antiproliferative activity against human J82 cells harboring FGFR3 K652E mutant assessed as cell growth inhibition by CellTiter-Glo assay; format: functional
BaF3 [8] = assay: Antiproliferative activity against mouse BaF3 cells harboring TEL-FGFR3 assessed as cell growth inhibition by CellTiter-Glo assay; format: functional
AN3-CA [9] = assay: Antiproliferative activity against human AN3-CA cells harboring FGFR2 K310R/N549K mutant assessed as cell growth inhibition by CellTiter-Glo assay; format: functional
[10] = Stability in human liver microsomes assessed as parent compound remaining at 1 uM incubated for 30 mins; format: ADME, Microsome; conditions: read-out: Stability
BaF3 [11] = assay: Antiproliferative activity against mouse BaF3 cells harboring TEL-FGFR4 V550E mutant assessed as cell growth inhibition by CellTiter-Glo assay; format: functional
[12] = target: Fibroblast growth factor receptor 3 (Homo sapiens, UniProt P22607, V555M)
[13] = target: Fibroblast growth factor receptor 3 (Homo sapiens, UniProt P22607, K650M)
[14] = target: Fibroblast growth factor receptor 2 (Homo sapiens, UniProt P21802, V564F)
Description: Inhibition of FGFR2 V564F mutant (unknown origin) by radiometric kinase activity assay

[15] = target: Fibroblast growth factor receptor 2 (Homo sapiens, UniProt P21802); assay: Inhibition of wild-type FGFR2 (unknown origin) by radiometric kinase activity assay
CYP1A2 = target: T1, CYP1A2 (Homo sapiens, UniProt P05177); assay: Inhibition of CYP1A2 (unknown origin) assessed as remaining activity at 10 uM relative to control; format: ADME; conditions: read-out: Activity
T1 sequence (P05177 whole entry): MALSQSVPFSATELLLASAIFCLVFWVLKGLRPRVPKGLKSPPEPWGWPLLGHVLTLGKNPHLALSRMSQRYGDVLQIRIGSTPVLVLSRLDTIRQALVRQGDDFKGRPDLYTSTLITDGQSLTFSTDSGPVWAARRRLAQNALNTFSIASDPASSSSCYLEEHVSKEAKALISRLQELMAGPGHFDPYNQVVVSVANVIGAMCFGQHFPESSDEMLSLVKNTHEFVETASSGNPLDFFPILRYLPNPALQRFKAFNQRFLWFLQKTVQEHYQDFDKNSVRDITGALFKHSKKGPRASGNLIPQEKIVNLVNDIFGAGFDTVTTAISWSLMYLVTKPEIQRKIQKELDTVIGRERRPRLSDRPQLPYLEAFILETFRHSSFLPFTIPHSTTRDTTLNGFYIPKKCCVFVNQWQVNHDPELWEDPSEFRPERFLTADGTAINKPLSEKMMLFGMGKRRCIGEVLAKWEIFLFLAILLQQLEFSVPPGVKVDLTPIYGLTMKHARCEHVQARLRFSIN

BaF3 [16] = assay: Antiproliferative activity against mouse BaF3 cells harboring TEL-FGFR4 N535K mutant assessed as cell growth inhibition by CellTiter-Glo assay; format: functional
[17] = Oral bioavailability in mouse at 10 mg/kg; format: ADME, organism-based; conditions: in vivo
[18] = Stability in rat liver microsomes assessed as parent compound remaining at 1 uM incubated for 30 mins; format: ADME, Microsome; conditions: read-out: Stability
[19] = Stability in dog liver microsomes assessed as parent compound remaining at 1 uM incubated for 30 mins; format: ADME, Canis lupus familiaris, Microsome; conditions: read-out: Stability
[20] = Toxicity in BALB/c mouse xenografted with human AN3-CA cells assessed as body weight loss at 20 to 40 mg/kg, po qd for 15 days measured once every 2 days; format: organism-based; conditions: in vivo, 360 h, dose 20-40 mg/kg, time 15 day
AN3-CA [21] = assay: Antitumor activity against human AN3-CA cells xenografted in BALB/c mouse assessed as tumor mean volume at 10 mg/kg, po qd for 15 days measured once every 2 days (reference value: 100%); format: functional; conditions: time 15 day
BaF3 [22] = assay: Antitumor activity against mouse BaF3 cells harboring TEL-V555M-FGFR3 mutant xenografted in BALB/c mouse assessed as tumor mean volume at 30 mg/kg, ip qd for 15 days measured once every 2 days (reference value: 100%); format: functional; conditions: time 15 day
BaF3 [23] = assay: Antitumor activity against mouse BaF3 cells harboring TEL-V555M-FGFR3 mutant xenografted in BALB/c mouse assessed as tumor mean volume at 30 mg/kg, po qd for 15 days measured once every 2 days (reference value: 100%); format: functional; conditions: time 15 day
BaF3 [24] = assay: Antitumor activity against mouse BaF3 cells harboring TEL-V555M-FGFR3 mutant xenografted in BALB/c mouse assessed as tumor growth inhibition at 30 mg/kg, ip qd for 15 days measured once every 2 days; format: functional; conditions: BaF3, 360 h, time 15 day
[25] = test system: Fibroblast growth factor receptor 2 (Homo sapiens), P21802 [V564F]; assay: Inhibition of FGFR2 V564F mutant (unknown origin) at 10 uM by radiometric kinase activity assay relative to control
[26] = test system: Fibroblast growth factor receptor 3 (Homo sapiens), P22607 [V555M]; assay: Inhibition of FGFR3 V555M mutant (unknown origin) at 10 uM by radiometric kinase activity assay relative to control
[27] = test system: Fibroblast growth factor receptor 2 (Homo sapiens), P21802 [N549H]; assay: Inhibition of FGFR2 N549H mutant (unknown origin) at 10 uM by radiometric kinase activity assay relative to control
BaF3 [28] = assay: Growth inhibition of mouse BaF3 cells harboring TEL-FGFR3 V555M mutant incubated for 72 hrs by Alamar blue assay; format: functional

Sequence of CYP2D6 (P10635 whole entry): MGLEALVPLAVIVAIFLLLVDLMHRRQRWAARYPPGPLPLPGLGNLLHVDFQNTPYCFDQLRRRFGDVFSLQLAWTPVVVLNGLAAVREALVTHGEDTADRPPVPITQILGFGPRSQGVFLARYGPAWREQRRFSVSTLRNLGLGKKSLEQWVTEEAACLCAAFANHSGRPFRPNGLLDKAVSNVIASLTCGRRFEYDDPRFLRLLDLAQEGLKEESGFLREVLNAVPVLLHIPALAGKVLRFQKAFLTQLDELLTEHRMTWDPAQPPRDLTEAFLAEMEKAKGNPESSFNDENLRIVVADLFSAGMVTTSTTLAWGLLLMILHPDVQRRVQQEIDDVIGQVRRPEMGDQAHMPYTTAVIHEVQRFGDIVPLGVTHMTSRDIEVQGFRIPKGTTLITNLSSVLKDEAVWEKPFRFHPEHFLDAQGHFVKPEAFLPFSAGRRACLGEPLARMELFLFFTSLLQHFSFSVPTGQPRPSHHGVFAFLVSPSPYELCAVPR
Sequence of Fibroblast growth factor receptor 3 (Homo sapiens, UniProt P22607, K650M) (P22607 23-806 K650M limits assumed): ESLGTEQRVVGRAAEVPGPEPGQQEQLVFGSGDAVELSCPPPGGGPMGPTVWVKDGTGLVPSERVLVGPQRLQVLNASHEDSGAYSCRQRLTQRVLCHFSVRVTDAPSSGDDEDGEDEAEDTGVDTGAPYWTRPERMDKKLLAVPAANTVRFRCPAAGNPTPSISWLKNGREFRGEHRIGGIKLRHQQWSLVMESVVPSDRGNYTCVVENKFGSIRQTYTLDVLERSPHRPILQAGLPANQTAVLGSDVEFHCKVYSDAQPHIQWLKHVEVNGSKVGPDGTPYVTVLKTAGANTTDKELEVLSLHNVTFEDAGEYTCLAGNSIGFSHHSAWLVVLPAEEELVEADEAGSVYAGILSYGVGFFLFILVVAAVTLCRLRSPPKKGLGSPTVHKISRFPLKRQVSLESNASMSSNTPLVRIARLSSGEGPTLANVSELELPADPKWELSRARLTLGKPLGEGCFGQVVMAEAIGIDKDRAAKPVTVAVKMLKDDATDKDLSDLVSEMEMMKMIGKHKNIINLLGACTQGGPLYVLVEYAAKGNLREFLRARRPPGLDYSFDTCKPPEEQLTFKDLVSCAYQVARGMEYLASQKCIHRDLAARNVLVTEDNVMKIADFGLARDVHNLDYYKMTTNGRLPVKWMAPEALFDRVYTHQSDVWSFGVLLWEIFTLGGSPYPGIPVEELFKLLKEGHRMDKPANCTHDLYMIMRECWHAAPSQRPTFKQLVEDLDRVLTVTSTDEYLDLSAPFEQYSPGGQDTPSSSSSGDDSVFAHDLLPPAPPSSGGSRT
Sequence of Fibroblast growth factor receptor 3 (Homo sapiens, UniProt P22607) (P22607 whole entry): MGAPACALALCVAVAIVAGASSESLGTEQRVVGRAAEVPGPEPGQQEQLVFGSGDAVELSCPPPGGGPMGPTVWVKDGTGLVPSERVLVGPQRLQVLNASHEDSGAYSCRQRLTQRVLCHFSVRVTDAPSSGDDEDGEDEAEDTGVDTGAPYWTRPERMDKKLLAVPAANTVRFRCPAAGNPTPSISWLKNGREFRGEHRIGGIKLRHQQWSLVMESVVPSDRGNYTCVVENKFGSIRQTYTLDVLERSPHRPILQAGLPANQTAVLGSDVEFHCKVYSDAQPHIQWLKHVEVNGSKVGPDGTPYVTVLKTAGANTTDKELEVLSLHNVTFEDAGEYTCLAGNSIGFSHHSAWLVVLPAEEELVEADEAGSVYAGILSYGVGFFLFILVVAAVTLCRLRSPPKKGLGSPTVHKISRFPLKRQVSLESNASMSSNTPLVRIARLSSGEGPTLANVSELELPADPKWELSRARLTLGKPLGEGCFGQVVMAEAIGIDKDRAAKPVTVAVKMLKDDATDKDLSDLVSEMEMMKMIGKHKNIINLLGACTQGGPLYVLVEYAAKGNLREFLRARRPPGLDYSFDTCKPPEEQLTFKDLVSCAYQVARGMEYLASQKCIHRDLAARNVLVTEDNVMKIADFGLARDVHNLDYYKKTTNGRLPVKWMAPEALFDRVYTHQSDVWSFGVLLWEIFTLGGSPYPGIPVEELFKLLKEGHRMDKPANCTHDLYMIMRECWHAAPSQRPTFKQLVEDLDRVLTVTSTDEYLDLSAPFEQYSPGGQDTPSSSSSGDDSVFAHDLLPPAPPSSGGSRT
Sequence of Fibroblast growth factor receptor 2 (Homo sapiens), P21802 [N549H] (P21802 whole entry N549H): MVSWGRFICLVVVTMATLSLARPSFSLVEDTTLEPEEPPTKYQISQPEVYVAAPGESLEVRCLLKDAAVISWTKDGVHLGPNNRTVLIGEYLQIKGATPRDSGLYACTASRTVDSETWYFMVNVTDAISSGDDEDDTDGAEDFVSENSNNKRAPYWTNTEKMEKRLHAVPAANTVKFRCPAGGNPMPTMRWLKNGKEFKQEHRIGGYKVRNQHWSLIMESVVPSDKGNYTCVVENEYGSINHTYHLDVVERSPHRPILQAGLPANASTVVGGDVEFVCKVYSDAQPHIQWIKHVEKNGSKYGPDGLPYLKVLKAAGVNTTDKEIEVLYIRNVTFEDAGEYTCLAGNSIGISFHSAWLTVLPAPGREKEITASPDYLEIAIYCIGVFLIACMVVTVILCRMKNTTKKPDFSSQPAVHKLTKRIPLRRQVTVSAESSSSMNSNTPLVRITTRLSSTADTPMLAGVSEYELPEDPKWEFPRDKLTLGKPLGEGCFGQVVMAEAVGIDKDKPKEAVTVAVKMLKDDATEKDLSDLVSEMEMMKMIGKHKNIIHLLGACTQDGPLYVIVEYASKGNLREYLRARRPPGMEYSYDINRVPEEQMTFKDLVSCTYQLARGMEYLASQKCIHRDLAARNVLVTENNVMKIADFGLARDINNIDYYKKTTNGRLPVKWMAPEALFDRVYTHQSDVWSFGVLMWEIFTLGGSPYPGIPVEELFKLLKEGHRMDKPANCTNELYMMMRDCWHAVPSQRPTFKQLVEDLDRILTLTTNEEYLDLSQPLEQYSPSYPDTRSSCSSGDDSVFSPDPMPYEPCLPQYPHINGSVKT
Sequence of Fibroblast growth factor receptor 2 (Homo sapiens, UniProt P21802) (P21802 whole entry): as the sequence (P21802 whole entry N549H) above, with H549N counted along it
Sequence of CYP2C19 (P33261 whole entry): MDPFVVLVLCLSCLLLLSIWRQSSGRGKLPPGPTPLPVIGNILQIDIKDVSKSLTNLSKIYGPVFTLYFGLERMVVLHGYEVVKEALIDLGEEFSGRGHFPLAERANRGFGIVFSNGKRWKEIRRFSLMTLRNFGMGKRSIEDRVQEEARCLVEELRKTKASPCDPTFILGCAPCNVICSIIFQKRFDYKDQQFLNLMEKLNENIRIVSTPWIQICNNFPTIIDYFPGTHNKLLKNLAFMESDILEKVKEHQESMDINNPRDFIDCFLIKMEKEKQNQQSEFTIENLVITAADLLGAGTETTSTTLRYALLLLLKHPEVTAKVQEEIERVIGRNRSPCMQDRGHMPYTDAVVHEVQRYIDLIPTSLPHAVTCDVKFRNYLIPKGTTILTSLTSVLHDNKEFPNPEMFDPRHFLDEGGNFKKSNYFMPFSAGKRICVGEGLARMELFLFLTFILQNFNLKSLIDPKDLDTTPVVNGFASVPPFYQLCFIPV
Sequence of Fibroblast growth factor receptor 2 (Homo sapiens, UniProt P21802, N549H) (P21802 22-821 N549H limits assumed): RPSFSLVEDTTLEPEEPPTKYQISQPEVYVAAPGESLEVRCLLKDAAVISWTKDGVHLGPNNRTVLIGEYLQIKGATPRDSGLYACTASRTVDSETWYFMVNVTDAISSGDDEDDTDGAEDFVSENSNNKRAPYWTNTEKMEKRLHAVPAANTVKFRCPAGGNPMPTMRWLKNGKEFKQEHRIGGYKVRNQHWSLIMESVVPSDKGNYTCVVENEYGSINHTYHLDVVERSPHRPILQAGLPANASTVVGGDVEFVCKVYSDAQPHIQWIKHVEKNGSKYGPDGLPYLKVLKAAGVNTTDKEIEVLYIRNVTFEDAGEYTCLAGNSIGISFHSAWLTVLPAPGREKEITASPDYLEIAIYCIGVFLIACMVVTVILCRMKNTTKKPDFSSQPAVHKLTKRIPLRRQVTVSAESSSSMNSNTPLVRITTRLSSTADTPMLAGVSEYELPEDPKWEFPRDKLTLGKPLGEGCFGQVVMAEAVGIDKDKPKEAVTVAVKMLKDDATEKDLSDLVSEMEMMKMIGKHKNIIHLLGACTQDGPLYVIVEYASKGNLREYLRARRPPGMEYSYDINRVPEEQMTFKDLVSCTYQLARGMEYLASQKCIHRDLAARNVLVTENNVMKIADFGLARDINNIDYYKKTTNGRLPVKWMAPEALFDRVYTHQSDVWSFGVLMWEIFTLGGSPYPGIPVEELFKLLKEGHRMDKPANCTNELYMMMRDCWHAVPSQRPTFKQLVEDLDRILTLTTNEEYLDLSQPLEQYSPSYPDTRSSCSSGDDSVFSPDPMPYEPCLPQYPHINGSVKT

Structure (SMILES)	GI50 [1]	GI50 (KMS-11)	activity at 10 µM (CYP2C9)	IC50 [2]	IC50 [3]	GI50 (BaF3 [4])	activity at 10 µM (CYP2D6)	IC50 [5]	remaining at 0.5 h, 1 µM [6]	IC50 [7]	activity at 10 µM (CYP2C19)	activity at 10 µM (CYP3A4)	GI50 (J82)	GI50 (BaF3 [8])	GI50 (AN3-CA [9])	remaining at 0.5 h, 1 µM [10]	GI50 (BaF3 [11])	activity at 10 µM (CYP1A2)	GI50 (BaF3 [16])	inhibition [25]	further results
COc1cc(OC)c(Cl)c(Nc2ncccc2-c2ncnc(Nc3cnn(C4CCN(C(C)C)CC4)c3)n2)c1Cl	> 5 µM	0.034 µM	79.1%	< 0.0005 µM	0.0073 µM	0.183 µM	81%	< 0.0005 µM	11.5%	< 0.0005 µM	44.6%	17.6%	0.547 µM	0.005 µM	0.021 µM	21.8%	0.749 µM	75.9%	1.68 µM		IC50 [12]: 0.0223 µM; IC50 [13]: 0.0048 µM; IC50 [14]: 0.189 µM; IC50 [15]: < 0.0005 µM
COc1cc(OC)c(Cl)c(Nc2ncccc2-c2ncnc(Nc3cnn(C4CCNCC4)c3)n2)c1Cl	> 5 µM	0.111 µM	89.9%	0.00098 µM	0.0263 µM	1.02 µM	> 100%	0.00253 µM	62.1%	< 0.0005 µM	51%	44.1%	0.977 µM	0.01 µM	0.029 µM	62.6%	2.59 µM	72.8%	3.65 µM		bioavailability [17]: 13.2%; remaining at 0.5 h, 1 µM [18]: 65.4%; remaining at 0.5 h, 1 µM [19]: 66.9%; Activity [20]: Non-Toxic; IC50 [12]: 0.268 µM; IC50 [13]: 0.0109 µM; IC50 [14]: 0.727 µM; IC50 [15]: < 0.0005 µM
CCN1CCN(c2ccc(Nc3cc(N(C)C(=O)Nc4c(Cl)c(OC)cc(OC)c4Cl)ncn3)cc2)CC1 [INFIGRATINIB]	> 5 µM	0.22 µM	88.4%			2.6 µM	94.9%		22.3%		64.9%	83%	3.35 µM	0.005 µM	0.039 µM	77%	4 µM	77.3%	> 5 µM	< 50%	remaining at 0.5 h, 1 µM [18]: 10.9%; Activity (AN3-CA [21]): 14.1%; Activity (BaF3 [22]): 44.74%; remaining at 0.5 h, 1 µM [19]: 8.1%; Activity (BaF3 [23]): 49%; inhibition in vivo at 30 mg/kg (BaF3 [24]): 60.2%
COc1ccccc1Nc1ncnc(-c2cccnc2Nc2c(Cl)c(OC)cc(OC)c2Cl)n1	> 5 µM	> 50 µM		0.275 µM		> 5 µM							31.2 µM	4.12 µM	5.55 µM					< 50%	inhibition [26]: < 50%; inhibition [27]: < 50%
COc1cc(N2CCOCC2)ccc1Nc1ncnc(-c2cccnc2Nc2c(Cl)c(OC)cc(OC)c2Cl)n1	> 5 µM	> 50 µM		1.55 µM		> 5 µM							31.2 µM	> 5 µM	> 50 µM					< 50%	inhibition [26]: < 50%; inhibition [27]: < 50%
COc1cc(OC)c(Cl)c(Nc2ncccc2-c2ncnc(Nc3ccc(N4C[C@@H](C)N[C@@H](C)C4)cc3)n2)c1Cl	1.53 µM	0.237 µM	62.3%	0.0006 µM	0.027 µM	0.733 µM	77.3%	0.00052 µM	44.8%	< 0.0005 µM	31.8%	13.3%	0.428 µM	0.005 µM	0.015 µM	10.2%	0.354 µM	72.6%	0.52 µM		remaining at 0.5 h, 1 µM [18]: 11.7%; remaining at 0.5 h, 1 µM [19]: 19%; IC50 [12]: 0.116 µM; IC50 [13]: 0.0261 µM; IC50 [14]: 0.363 µM; IC50 [15]: < 0.0005 µM
COc1cc(OC)c(Cl)c(Nc2ncccc2-c2ncnc(Nc3ccc(N4CCOCC4)nc3OC)n2)c1Cl	> 5 µM	> 50 µM		1.71 µM		> 5 µM							31 µM	> 5 µM	> 50 µM					< 50%	inhibition [26]: < 50%; inhibition [27]: < 50%
Cc1nc2ccc(-n3ncc(C(=O)c4cc5ccccc5[nH]4)c3N)cc2[nH]1 [FGFR INHIBITOR DEBIO 1347]																					GI50 (BaF3 [28]): 8.24 µM
